Experimental data as given in PubChem BioAssay (NCI).
Values joined by “and” are separate entries in the source; they are usually repeats but may differ in a detail not shown here. Equal entries are not always repeated.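 Dose response: 5 concentrations. Exposure: 48 h. Format: 96-well plates. Endpoint: linear interpolation; highest concentration if not reached. GI50 marks 50% less growth. The concentration for full growth arrest is given as TGI.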

Legend:
Test in all cases: NCI-60 cell line screen, 48 h
SNB-78 CNS = system: SNB-78 CNS
MDA-N = system: MDA-N
HOP-18 NSCLC = system: HOP-18 NSCLC
LXFL 529 NSCLC = system: LXFL 529 NSCLC
XF 498 CNS = system: XF 498 CNS
HS 578T breast = system: HS 578T breast
BT-549 breast = system: BT-549 breast
NCI/ADR-RES ovarian = system: NCI/ADR-RES ovarian

Compound	TGI (SNB-78 CNS) [µM]	GI50 (MDA-N) [µM]	TGI (MDA-N) [µM]	TGI (HOP-18 NSCLC)	TGI (LXFL 529 NSCLC)	TGI (XF 498 CNS) [µM]	TGI (HS 578T breast) [µM]	TGI (BT-549 breast) [µM]	GI50 (HOP-18 NSCLC) [µM]	GI50 (LXFL 529 NSCLC) [µM]	GI50 (XF 498 CNS) [µM]	TGI (NCI/ADR-RES ovarian) [µM]
C/C(=N\NC(=S)N1CCC1)c1ccccn1	> 100	0.476	> 100	> 100 µM	> 100 µM	> 100	> 100	73.3				
O=C([O-])c1ccc([I+]c2ccccc2)cc1	> 100			> 100 µM	> 100 µM	> 100						
O=c1c2ccccc2nc(-c2cccc(Cl)c2)n1NC1OC(CO)C(O)C(O)C1O (stereo not given)	> 100			> 100 µM	> 100 µM	> 100						
CCOC(=O)C[C@@]12CCCN[C@]1(C)CCc1ccccc12	> 100			> 100 µM	> 100 µM	> 100						
CCCCCCCCCCCCCC(=O)O[C@H]1CC[C@H](NC(=O)[C@H](OC)[C@H](O)[C@@H](O)[C@H](O)/C=C/C(C)C)C(=O)N(C)C1	15			15 µM and > 23.8 µM	15 µM and 3.94 µM				11.3	0.00238	0.0043	
CCCCCCCCCC1CC(=O)OC23CCCC(=O)C12O3 (stereo not given)	> 100			> 100 µM	> 100 µM	> 100						
O=C1C=CC2(O)OCC3C=C4O[C@@H]5OC6(CCCCC6)O[C@@H]5C4[C@@H]2[C@@H]13 (stereo not given in full)	83.3			> 100 µM	29.7 µM	72.6						
C/C(CCN(C)C)=N/O	51.7			29.6 µM	4.72 µM	33.6						
CNC(=O)OCc1nc(SSc2nc(COC(=O)NC)c(COC(=O)NC)n2C)n(C)c1COC(=O)NC	> 100			> 100 µM	> 100 µM	> 100						
CC(C)N(C(=O)C12C3C4C1C1C4(C#N)C3C12C(=O)O)C(C)C (stereo not given)	> 100			> 100 µM	> 100 µM	> 100						
CN1CCCc2nc3ccccc3n2C1	> 100			> 100 µM	> 100 µM	> 100						
O=C(Nc1nc(=S)[nH][nH]1)C(=O)C(c1cnc2ccc([N+](=O)[O-])cc2n1)[N+](=O)[O-] (stereo not given)	> 100			> 100 µM	> 100 µM	> 100						
CCOC(=O)C1C(c2ccc(Br)cc2)N(Cc2ccccc2)C(c2ccc(Br)cc2)C(C(=O)OC)S1(=O)=O (stereo not given)	> 100			72.9 µM	> 100 µM	> 100						
CCCC(O)[C@@]1(CC)CC(C)C(O)(C2(C)C[C@H](C)[C@@H](C(CC)C(=O)C(C)[C@@H](O)[C@H](C)C3OC(O)(C(CC)C(=O)O)[C@@H](C)C(O)C3CC)O2)O1 (stereo not given in full)	31.7		1.86	23.9 µM	3.91 µM	2.43	2.99	1.41				1.82
N#Cc1ccccc1Sc1ccccc1N	> 100			> 100 µM	> 100 µM	> 100						
